Results published in ChEMBL document CHEMBL1909046, “DrugMatrix in vitro pharmacology data”.

How the values were obtained:
[1] = DRUGMATRIX: Tumor Necrosis Factor (TNF), Non-Selective radioligand binding (ligand: [125I] TNF-alpha); format: cell membranes, Membrane; settings: u-937; Not Active = under 50% inhibition at 10 µM
[2] = DRUGMATRIX: Calcium Channel Type L, Phenylalkylamine radioligand binding (ligand: [3H] (-)-Desmethoxyverapamil (D-888)); format: cell membranes, Rattus norvegicus, Wistar, Brain, Membrane; settings: Not Active = under 50% inhibition at 10 µM
[3] = DRUGMATRIX: GABAA, Chloride Channel, TBOB radioligand binding (ligand: [3H] TBOB); format: cell membranes, Rattus norvegicus, Wistar, Cerebral cortex, Membrane; settings: Not Active = under 50% inhibition at 10 µM
[4] = DRUGMATRIX: Imidazoline I2, Central radioligand binding (ligand: [3H] Idazoxan); format: cell membranes, Rattus norvegicus, Wistar, Cerebral cortex, Membrane; settings: Not Active = under 50% inhibition at 10 µM
[5] = DRUGMATRIX: Leukotriene, BLT (LTB4) radioligand binding (ligand: [3H]LTB4); format: cell membranes, Membrane; settings: u-937; Not Active = under 50% inhibition at 10 µM
[6] = DRUGMATRIX: Purinergic P2X radioligand binding (ligand: [3H] alpha, beta-Methylene-ATP); format: cell membranes, Oryctolagus cuniculus, New Zealand albino, Urinary bladder, Membrane; settings: Not Active = under 50% inhibition at 10 µM
Cytochrome P450 2C19 = Cytochrome P450 2C19 (Homo sapiens, UniProt P33261); settings: bti-tn-5b1-4; also: in other assays of this panel Not Active means under 50% inhibition at 10 µM
Cytochrome P450 2C19, sequence (P33261 whole entry): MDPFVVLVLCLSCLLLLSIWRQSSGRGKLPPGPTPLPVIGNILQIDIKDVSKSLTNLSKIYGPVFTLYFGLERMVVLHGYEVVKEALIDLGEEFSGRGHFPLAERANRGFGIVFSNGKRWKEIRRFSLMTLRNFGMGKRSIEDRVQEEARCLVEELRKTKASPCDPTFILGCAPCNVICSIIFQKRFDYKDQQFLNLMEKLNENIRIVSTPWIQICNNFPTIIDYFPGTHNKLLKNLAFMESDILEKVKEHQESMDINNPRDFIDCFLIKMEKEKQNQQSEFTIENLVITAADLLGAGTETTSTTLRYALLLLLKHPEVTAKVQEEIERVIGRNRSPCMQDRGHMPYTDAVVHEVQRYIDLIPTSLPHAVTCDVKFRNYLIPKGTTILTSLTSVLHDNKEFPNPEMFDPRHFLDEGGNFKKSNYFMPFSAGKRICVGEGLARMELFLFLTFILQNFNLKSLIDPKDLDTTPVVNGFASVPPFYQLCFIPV

CC(=N)S [THIOACETAMIDE]
Not Active: IC50 [1] | Ki [1] | IC50 [2] | Ki [2] | IC50 [3] | Ki [3] | IC50 [4] | Ki [4] | IC50 [5] | Ki [5] | IC50 [6] | Ki [6] | IC50 (Cytochrome P450 2C19) | Ki (Cytochrome P450 2C19)

Cc1ccc(C(=O)c2ccc(CC(=O)O)n2C)cc1 [TOLMETIN]
Not Active: IC50 [1] | Ki [1] | IC50 [2] | Ki [2] | IC50 [3] | Ki [3] | IC50 [4] | Ki [4] | IC50 [5] | Ki [5] | IC50 [6] | Ki [6] | IC50 (Cytochrome P450 2C19) | Ki (Cytochrome P450 2C19)

CC(=O)OCC(COC(C)=O)OC(C)=O [TRIACETIN]
Not Active: IC50 [1] | Ki [1] | IC50 [2] | Ki [2] | IC50 [3] | Ki [3] | IC50 [4] | Ki [4] | IC50 [5] | Ki [5] | IC50 [6] | Ki [6] | IC50 (Cytochrome P450 2C19) | Ki (Cytochrome P450 2C19)

TRANSPLATIN
Not Active: IC50 [1] | Ki [1] | IC50 [2] | Ki [2] | IC50 [3] | Ki [3] | IC50 [4] | Ki [4] | IC50 [5] | Ki [5] | IC50 [6] | Ki [6] | IC50 (Cytochrome P450 2C19) | Ki (Cytochrome P450 2C19)

ZIRCONIUM(IV) CHLORIDE
Not Active: IC50 [1] | Ki [1] | IC50 [2] | Ki [2] | IC50 [3] | Ki [3] | IC50 [4] | Ki [4] | IC50 [5] | Ki [5] | IC50 [6] | Ki [6] | IC50 (Cytochrome P450 2C19) | Ki (Cytochrome P450 2C19)
